Our source for the AC50 values is patent publication US20250171438A1 (Agios Pharmaceuticals, Inc., priority 2022, published 2025).

In one test the target is T1, human PAH with the R408W mutation (Homo sapiens, UniProt P00439, R408W).
T1 construct: expressed in transfected cells
T1 sequence (P00439 1-452 R408W): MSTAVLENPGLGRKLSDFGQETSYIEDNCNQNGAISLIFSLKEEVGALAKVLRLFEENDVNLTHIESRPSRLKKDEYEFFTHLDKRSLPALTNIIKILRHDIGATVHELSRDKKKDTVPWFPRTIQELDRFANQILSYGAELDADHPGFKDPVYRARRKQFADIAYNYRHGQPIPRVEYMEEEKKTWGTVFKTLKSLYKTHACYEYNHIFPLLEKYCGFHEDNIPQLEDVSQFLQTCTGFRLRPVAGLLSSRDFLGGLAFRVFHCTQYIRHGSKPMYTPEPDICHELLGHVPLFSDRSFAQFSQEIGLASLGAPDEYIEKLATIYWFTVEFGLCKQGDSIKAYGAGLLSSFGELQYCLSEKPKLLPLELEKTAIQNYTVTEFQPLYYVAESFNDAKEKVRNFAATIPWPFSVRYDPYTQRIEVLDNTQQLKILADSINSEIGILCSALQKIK
Nature of the test: Cell Based Phenylalanine Flux Assay. Details: scale not given here. As to conditions: A375 cells expressing human R408W PAH; 24 hrs compound incubation; 13C-Tyrosine by LC-MS; average where tested multiple times; read-out: AC50.
As for `C[C@@H]1CN(C(=O)c2nnc(-c3cnn(C)c3)o2)[C@@H](c2nc3ccccc3s2)c2nc[nH]c21` [Example 1749, ((4R,7R)-4-(benzo[d]thiazol-2-yl)-7-methyl-6,7-dihydro-1H-imidazo[4,5-c]pyridin-5(4H)-yl)(5-(1-methyl-1H-pyrazol-4-yl)-1,3,4-oxadiazol-2-yl)methanone], the concentration at half-maximal activity (AC50) was in the range of 1 to 5 µM.

Consider `Cn1cc(C(=O)N2CCc3[nH]cnc3[C@H]2c2nc3ccccc3s2)c(Cl)n1` [Example 1870], for which the AC50 is under 0.5 µM.

With `O=C(c1cn[nH]c1Cl)N1CCc2[nH]cnc2[C@@H]1c1nc2c(F)cccc2s1` [Example 1861, (R)-(5-chloro-1H-pyrazol-4-yl)(4-(4-fluorobenzo[d]thiazol-2-yl)-6,7-dihydro-1H-imidazo[4,5-c]pyridin-5(4H)-yl)methanone], the AC50 fell in the range of 1 to 5 µM.

With `N#Cc1ncoc1C(=O)N1CCc2[nH]cnc2[C@@H]1c1nc2c(F)cccc2s1` [Example 1662, (R)-5-(4-(4-fluorobenzo[d]thiazol-2-yl)-4,5,6,7-tetrahydro-1H-imidazo[4,5-c]pyridine-5-carbonyl)oxazole-4-carbonitrile], the AC50 was 1 to 5 µM.

Take `O=C(c1nnc(-c2cc(C(F)(F)F)ccn2)o1)N1CCc2[nH]cnc2[C@H]1c1nc2c(F)cccc2s1` [Example 1906, (S)-(4-(4-fluorobenzo[d]thiazol-2-yl)-6,7-dihydro-1H-imidazo[4,5-c]pyridin-5(4H)-yl)(5-(4-(trifluoromethyl)pyridin-2-yl)-1,3,4-oxadiazol-2-yl)methanone]: the half-maximal activity concentration (AC50) is under 0.5 µM.

For the molecule “((4R)-4-(benzo[d]thiazol-2-yl)-3a,4,6,7,8,8a-hexahydroimidazo[4,5-c]azepin-5(1H)-yl)(4-cyclopropyloxazol-5-yl)methanone [Example 2168]”, the AC50 lay within 1 to 5 µM.

For the molecule `CC1(C(=O)N2CCc3[nH]cnc3[C@H]2c2nc3ccccc3s2)CC1(F)F` (single isomer, unassigned) [Example 1291], the AC50 fell in the range of 0.5 to 1 µM.

As for `O=C(c1oc(C2CC2)nc1C(F)(F)F)N1CCc2[nH]cnc2[C@H]1c1nc2ccccc2s1` [Example 2163], the half-maximal activity concentration (AC50) is under 0.5 µM.

`O=C(CC1CC1)N1CCc2[nH]cnc2[C@@H]1c1nc2ccc(Cl)cc2[nH]1` [Example 953, (R)-1-(4-(6-chloro-1H-benzo[d]imidazol-2-yl)-6,7-dihydro-1H-imidazo[4,5-c]pyridin-5(4H)-yl)-2-cyclopropylethanone]: the AC50 was in the range of 1 to 5 µM.

On to `O=C(CCc1nccs1)N1CCc2[nH]cnc2[C@H]1c1nc2ccc(Br)cc2[nH]1` [Example 908, (S)-1-(4-(6-bromo-1H-benzo[d]imidazol-2-yl)-6,7-dihydro-1H-imidazo[4,5-c]pyridin-5(4H)-yl)-3-(thiazol-2-yl)propan-1-one], for which the half-maximal activity concentration (AC50) was under 0.5 µM.

As to `O=C(c1cnn2ccc(Br)cc12)N1CCc2[nH]cnc2[C@H]1c1nc2ccccc2[nH]1` [Example 925, (S)-(4-(1H-benzo[d]imidazol-2-yl)-6,7-dihydro-3H-imidazo[4,5-c]pyridin-5(4H)-yl)(5-bromopyrazolo[1,5-a]pyridin-3-yl)methanone], the concentration at half-maximal activity (AC50) lay within 1 to 5 µM.

For the molecule `O=C(CC1CC1)N1CCc2[nH]cnc2[C@@H]1c1nc2cc(F)ccc2s1` [Example 1136, (R)-2-cyclopropyl-1-(4-(5-fluorobenzo[d]thiazol-2-yl)-6,7-dihydro-1H-imidazo[4,5-c]pyridin-5(4H)-yl)ethanone], the half-maximal activity concentration (AC50) lay within 1 to 5 µM.

Take `CC(C)(O)c1nc(Cl)c(C(=O)N2CCc3[nH]cnc3[C@@H]2c2nc3c(F)cccc3s2)o1` [Example 1936, (R)-(4-chloro-2-(2-hydroxypropan-2-yl)oxazol-5-yl)(4-(4-fluorobenzo[d]thiazol-2-yl)-6,7-dihydro-1H-imidazo[4,5-c]pyridin-5(4H)-yl)methanone]: the half-maximal activity concentration (AC50) lay within 1 to 5 µM.

With `O=C(c1cnn2cc(F)ccc12)N1CCc2[nH]cnc2[C@H]1c1nc2ccc(Br)cc2[nH]1` [Example 967, (S)-(4-(6-bromo-1H-benzo[d]imidazol-2-yl)-6,7-dihydro-1H-imidazo[4,5-c]pyridin-5(4H)-yl)(6-fluoropyrazolo[1,5-a]pyridin-3-yl)methanone], the AC50 was in the range of 0.5 to 1 µM.

Turning to `Cc1nnc(CCC(=O)N2CCc3[nH]cnc3[C@H]2c2nc3ccccc3s2)s1` [Example 1019], the half-maximal activity concentration (AC50) fell in the range of 0.5 to 1 µM.

On to `O=C(c1ncn2ccccc12)N1CCc2[nH]cnc2[C@@H]1c1nc2c(F)cccc2s1` [Example 1144, (R)-(4-(4-fluorobenzo[d]thiazol-2-yl)-6,7-dihydro-1H-imidazo[4,5-c]pyridin-5(4H)-yl)(imidazo[1,5-a]pyridin-1-yl)methanone], for which the half-maximal activity concentration (AC50) is over 5 µM.

For the molecule `Cn1nc(C(F)F)cc1C(=O)N1CCc2[nH]cnc2[C@H]1c1nc2c(F)cccc2s1` [Example 1731, (S)-(3-(difluoromethyl)-1-methyl-1H-pyrazol-5-yl)(4-(4-fluorobenzo[d]thiazol-2-yl)-6,7-dihydro-1H-imidazo[4,5-c]pyridin-5(4H)-yl)methanone], the AC50 is under 0.5 µM.

Regarding `O=C(CC1CC(F)C1)N1CCc2[nH]cnc2[C@H]1c1nc2c(F)cccc2s1` (stereo partly drawn) [Example 1649, (S)-1-(4-(4-fluorobenzo[d]thiazol-2-yl)-6,7-dihydro-1H-imidazo[4,5-c]pyridin-5(4H)-yl)-2-(3-fluorocyclobutyl)ethanone], the AC50 was under 0.5 µM.

`O=C(CC1CC1)N1CCc2[nH]cnc2[C@H]1c1nc2ccccc2s1` [Example 1071]: the AC50 is under 0.5 µM.

As for `COC(C)(C)c1nc(C)c(C(=O)N2CCc3[nH]cnc3[C@@H]2c2nc3c(F)cccc3s2)o1` [Example 1915, (R)-(4-(4-fluorobenzo[d]thiazol-2-yl)-6,7-dihydro-1H-imidazo[4,5-c]pyridin-5(4H)-yl)(2-(2-methoxypropan-2-yl)-4-methyloxazol-5-yl)methanone], the concentration at half-maximal activity (AC50) is over 5 µM.

For the molecule `CC(C)n1ncnc1C(=O)N1CCc2[nH]cnc2[C@@H]1c1nc2c(F)cccc2s1` [Example 2040, (R)-(4-(4-fluorobenzo[d]thiazol-2-yl)-6,7-dihydro-1H-imidazo[4,5-c]pyridin-5(4H)-yl)(1-isopropyl-1H-1,2,4-triazol-5-yl)methanone], the AC50 lay within 1 to 5 µM.

For `O=C(c1cnn(C2CC2)c1C(F)F)N1CCc2[nH]cnc2[C@H]1c1nc2c(F)cccc2s1` [Example 1999, (S)-(1-cyclopropyl-5-(difluoromethyl)-1H-pyrazol-4-yl)(4-(4-fluorobenzo[d]thiazol-2-yl)-6,7-dihydro-1H-imidazo[4,5-c]pyridin-5(4H)-yl)methanone], the half-maximal activity concentration (AC50) was 0.5 to 1 µM.

In the case of `O=C(c1cc2cccnn2c1)N1CCc2[nH]cnc2[C@@H]1c1nc2ccccc2s1` [Example 1128, (R)-(4-(benzo[d]thiazol-2-yl)-6,7-dihydro-1H-imidazo[4,5-c]pyridin-5(4H)-yl)(pyrrolo[1,2-b]pyridazin-6-yl)methanone], the AC50 was over 5 µM.

On to `O=C(c1oc(-c2ccccn2)nc1Br)N1CCc2[nH]cnc2[C@@H]1c1nc2ccccc2s1` [Example 1849, (R)-(4-(benzo[d]thiazol-2-yl)-6,7-dihydro-1H-imidazo[4,5-c]pyridin-5(4H)-yl)(4-bromo-2-(pyridin-2-yl)oxazol-5-yl)methanone], for which the concentration at half-maximal activity (AC50) is 1 to 5 µM.

`CCc1nnc(CCC(=O)N2CCc3[nH]cnc3[C@H]2c2nc3ccccc3s2)s1` [Example 1115]: the half-maximal activity concentration (AC50) is 0.5 to 1 µM.

For `O=C(c1ccnn1C(F)F)N1CCc2[nH]cnc2[C@@H]1c1nc2c(F)cccc2s1` [Example 1740, (R)-(1-(difluoromethyl)-1H-pyrazol-5-yl)(4-(4-fluorobenzo[d]thiazol-2-yl)-6,7-dihydro-1H-imidazo[4,5-c]pyridin-5(4H)-yl)methanone], the AC50 was 1 to 5 µM.

The test is the same for the next values; noted with them: A375 cells expressing human R408W PAH; 24 hrs with compound; 13C-Tyrosine by LC-MS; average where tested multiple times.
Take `NC(=O)c1nc(-c2ccccn2)oc1C(=O)N1CCc2[nH]cnc2C1c1nc2ccccc2s1` (stereo not shown): the AC50 result is given as “E, E”.

The same test, now with this note: A375 cells expressing human R408W PAH; 24 hrs with compound; 13C-Tyrosine by LC-MS; average where tested multiple times; read-out: AC50.
In the case of `O=C(CCc1cccs1)N1CCc2[nH]cnc2C1c1nc2ccccc2[nH]1` (stereo not shown), the AC50 is over 5 µM.

Regarding `O=C(c1n[nH]c2ccccc12)N1CCc2[nH]cnc2C1c1nc2c(F)cccc2s1` (stereo not shown), the half-maximal activity concentration (AC50) is 1 to 5 µM.

Regarding `Cc1nc(CCC2CC2)oc1C(=O)N1CCCc2[nH]cnc2[C@H]1c1nc2ccccc2s1` (single isomer, unassigned), the AC50 fell in the range of 1 to 5 µM.

Consider `Cc1nc(C(=O)N2CCc3[nH]cnc3C2c2nc3c(F)cccc3s2)n(C)n1` (stereo not shown), for which the concentration at half-maximal activity (AC50) is over 5 µM.

Take `O=C(c1ncn2ccccc12)N1CCc2[nH]cnc2[C@@H]1c1nc2ccc(F)cc2s1` (single isomer, unassigned): the half-maximal activity concentration (AC50) was over 5 µM.

Consider `NC(=O)Cn1ncc(C(=O)N2CCc3[nH]cnc3C2c2nc3c(F)cccc3s2)c1C(F)F` (stereo not shown), for which the AC50 lay in the range of 1 to 5 µM.

Consider `CC1CN(C(=O)c2cnn3cc(CN(C)C)ccc23)C(c2nc3ccccc3s2)c2nc[nH]c21` (stereo not shown), for which the concentration at half-maximal activity (AC50) was 1 to 5 µM.

Regarding `CC1CN(C(=O)c2nnc(C(C)(C)O)o2)C(c2nc3ccccc3s2)c2nc[nH]c21` (stereo not shown), the AC50 is over 5 µM.

Take `O=C(c1nc2ccc(F)cc2s1)N1CCc2[nH]cnc2C1c1nc2ccccc2s1` (stereo not shown): the AC50 was 1 to 5 µM.

In the case of `Cc1nnc(CCC(=O)N2CCc3[nH]cnc3C2c2nc3ccccc3[nH]2)s1` (stereo not shown), the half-maximal activity concentration (AC50) was 1 to 5 µM.
